Test results published in paper PMC4066673 (Biochemistry, 2012).

Experiments:
hTHEM4 [1] = target: T1, hTHEM4 (Homo sapiens, UniProt Q5T1C6); assay: product inhibition of thioesterase activity; assay type: biochemical
hTHEM4 [2] = target: T1, hTHEM4; assay: substrate hydrolysed in the competitive inhibition assay; assay type: biochemical

T1 sequence (Q5T1C6 37-240): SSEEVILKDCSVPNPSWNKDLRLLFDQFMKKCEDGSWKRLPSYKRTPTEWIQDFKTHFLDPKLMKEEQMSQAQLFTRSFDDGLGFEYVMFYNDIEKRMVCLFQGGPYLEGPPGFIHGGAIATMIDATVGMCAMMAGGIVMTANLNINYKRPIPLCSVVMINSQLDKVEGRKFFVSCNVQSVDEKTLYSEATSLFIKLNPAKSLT

Ki (hTHEM4 [1]) [µM]	Compound	substrate hydrolysed in the competitive inhibition assay (hTHEM4 [2])
81 ± 1	CC(C)(COP(=O)(O)OP(=O)(O)OC[C@H]1O[C@@H](n2cnc3c(N)ncnc32)[C@H](O)[C@@H]1OP(=O)(O)O)[C@@H](O)C(=O)NCCC(=O)NCCS [CoA]	
	CCCCCCCCCC(=O)SCCNC(=O)CCNC(=O)[C@H](O)C(C)(C)COP(=O)(O)OP(=O)(O)OC[C@H]1O[C@@H](n2cnc3c(N)ncnc32)[C@H](O)[C@@H]1OP(=O)(O)O [decanoyl-CoA]	competitive inhibitor of hTHEM4-catalyzed decanoyl-CoA hydrolysis
